# Reference: ChEMBL document CHEMBL1144019 (Bioorg Med Chem, 2008)
# Assays:
# [1] = tested on: Pseudomonas aeruginosa; experiment: Antibacterial activity against Pseudomonas aeruginosa SR-24765 isolate by standard serial agar dilution method; format: functional
# [2] = tested on: Pseudomonas aeruginosa; experiment: Antibacterial activity against imipenem-resistant Pseudomonas aeruginosa SR-6554 by standard serial agar dilution method; format: functional
# [3] = tested on: Pseudomonas aeruginosa; experiment: Antibacterial activity against Pseudomonas aeruginosa SR-24816 isolate by standard serial agar dilution method; format: functional
# [4] = tested on: Haemophilus influenzae; experiment: Antibacterial activity against Haemophilus influenzae ATCC 49766 by standard serial agar dilution method; format: functional
# [5] = tested on: Pseudomonas aeruginosa; experiment: Antibacterial activity against AmpC hyperproducing Pseudomonas aeruginosa SR24-12 by standard serial agar dilution method; format: functional
# [6] = tested on: Pseudomonas aeruginosa; experiment: Antibacterial activity against Pseudomonas aeruginosa SR24 by standard serial agar dilution method; format: functional
# [7] = tested on: Moraxella catarrhalis; experiment: Antibacterial activity against Moraxella catarrhalis ATCC 43617 by standard serial agar dilution method; format: functional
# [8] = Stability in presence of AmpC beta-lactamase; format: ADME
# [9] = tested on: Enterobacter cloacae; experiment: Antibacterial activity against AmpC producing Enterobacter cloacae SR-4321 by standard serial agar dilution method; format: functional
# [10] = tested on: Streptococcus pneumoniae; experiment: Antibacterial activity against penicillin-resistant Streptococcus pneumoniae SR-16675 by standard serial agar dilution method; format: functional
# [11] = tested on: Pseudomonas aeruginosa; experiment: Antibacterial activity against Pseudomonas aeruginosa SR-24736 isolate by standard serial agar dilution method; format: functional
# [12] = tested on: Pseudomonas aeruginosa; experiment: Antibacterial activity against Pseudomonas aeruginosa SR-24722 isolate by standard serial agar dilution method; format: functional
# [13] = tested on: Haemophilus influenzae; experiment: Antibacterial activity against beta-lactamase negative ampicillin-resistant Haemophilus influenzae SR-11435 by standard serial agar dilution method; format: functional
# [14] = tested on: Pseudomonas aeruginosa; experiment: Antibacterial activity against Pseudomonas aeruginosa SR-24797 isolate by standard serial agar dilution method; format: functional
# [15] = tested on: Escherichia coli; experiment: Antibacterial activity against Escherichia coli SR-21003 by standard serial agar dilution method; format: functional
# [16] = tested on: Pseudomonas aeruginosa; experiment: Antibacterial activity against Pseudomonas aeruginosa SR-5393 by standard serial agar dilution method; format: functional
# [17] = tested on: Staphylococcus aureus; experiment: Antibacterial activity against Staphylococcus aureus Smith by standard serial agar dilution method; format: functional
# [18] = tested on: Pseudomonas aeruginosa; experiment: Antibacterial activity against Pseudomonas aeruginosa SR-24770 isolate by standard serial agar dilution method; format: functional
# [19] = tested on: Enterobacter cloacae; experiment: Antibacterial activity against Enterobacter cloacae ATCC 13047 by standard serial agar dilution method; format: functional
# [20] = tested on: Escherichia coli; experiment: Antibacterial activity against Toho 2 producing Escherichia coli by standard serial agar dilution method; format: functional
# [21] = tested on: Pseudomonas aeruginosa; experiment: Antibacterial activity in CAZ-resistant Pseudomonas aeruginosa SR24-12 infected ICR mouse after 7 days; format: functional; settings: 168 h
# [22] = tested on: Pseudomonas aeruginosa; experiment: Antibacterial activity in CAZ-susceptible Pseudomonas aeruginosa SR24 infected ICR mouse after 7 days; format: functional; settings: 168 h
Compound,MIC [1],MIC [2],MIC [3],MIC [4],MIC [5],MIC [6],MIC [7],Stability [8],MIC [9],MIC [10],MIC [11],MIC [12],MIC [13],MIC [14],MIC [15],MIC [16],MIC [17],MIC [18],MIC [19],MIC [20],other results
CNCCCn1ccc2c1ccc[n+]2CC1=C(C(=O)[O-])N2C(=O)[C@@H](NC(=O)/C(=N\O[C@@H](C)C(=O)O)c3nc(N)sc3Cl)[C@H]2SC1,8 µg/mL,8 µg/mL,4 µg/mL,0.032 µg/mL,4 µg/mL,1 µg/mL,0.016 µg/mL,78.4%,2 µg/mL,4 µg/mL,8 µg/mL,8 µg/mL,0.063 µg/mL,8 µg/mL,0.5 µg/mL,2 µg/mL,2 µg/mL,8 µg/mL,0.5 µg/mL,2 µg/mL,
CC(C)(O/N=C(\C(=O)N[C@@H]1C(=O)N2C(C(=O)[O-])=C(C[n+]3ccccc3)CS[C@H]12)c1csc(N)n1)C(=O)O [CEFTAZIDIME],128 µg/mL,32 µg/mL,64 µg/mL,0.063 µg/mL,64 µg/mL,0.5 µg/mL,0.063 µg/mL,18%,64 µg/mL,8 µg/mL,128 µg/mL,64 µg/mL,0.125 µg/mL,64 µg/mL,0.25 µg/mL,2 µg/mL,8 µg/mL,64 µg/mL,8 µg/mL,1 µg/mL,ED50 [21]: > 128 mg/kg; ED50 [22]: 2.83 mg/kg
CNCCCn1c(N)nc2c1ccc[n+]2CC1=C(C(=O)[O-])N2C(=O)[C@@H](NC(=O)/C(=N\O[C@@H](C)C(=O)O)c3nc(N)sc3Cl)[C@H]2SC1,4 µg/mL,8 µg/mL,2 µg/mL,0.032 µg/mL,4 µg/mL,0.5 µg/mL,0.016 µg/mL,90.2%,2 µg/mL,2 µg/mL,2 µg/mL,4 µg/mL,0.063 µg/mL,4 µg/mL,0.25 µg/mL,2 µg/mL,2 µg/mL,4 µg/mL,0.5 µg/mL,2 µg/mL,ED50 [21]: 4.69 mg/kg; ED50 [22]: 1.33 mg/kg
CNCCNc1cc[n+](CC2=C(C(=O)[O-])N3C(=O)[C@@H](NC(=O)/C(=N\O[C@@H](C)C(=O)O)c4nc(N)sc4Cl)[C@H]3SC2)cc1,,16 µg/mL,,0.125 µg/mL,4 µg/mL,0.5 µg/mL,0.032 µg/mL,80.3%,4 µg/mL,4 µg/mL,,,0.25 µg/mL,,0.5 µg/mL,2 µg/mL,4 µg/mL,,0.5 µg/mL,4 µg/mL,
CNCCn1ccc2c1ccc[n+]2CC1=C(C(=O)[O-])N2C(=O)[C@@H](NC(=O)/C(=N\O[C@@H](C)C(=O)O)c3nc(N)sc3Cl)[C@H]2SC1,,8 µg/mL,,0.032 µg/mL,4 µg/mL,1 µg/mL,0.032 µg/mL,,2 µg/mL,4 µg/mL,,,0.125 µg/mL,,0.5 µg/mL,2 µg/mL,2 µg/mL,,0.5 µg/mL,2 µg/mL,
CO/N=C(\C(=O)N[C@@H]1C(=O)N2C(C(=O)[O-])=C(C[N+]3(C)CCCC3)CS[C@H]12)c1csc(N)n1,,64 µg/mL,,0.032 µg/mL,32 µg/mL,0.5 µg/mL,0.5 µg/mL,12.9%,,2 µg/mL,,,0.5 µg/mL,,0.063 µg/mL,4 µg/mL,2 µg/mL,,,4 µg/mL,
C[C@H](O/N=C(\C(=O)N[C@@H]1C(=O)N2C(C(=O)[O-])=C(C[n+]3cccc4c3ccn4CCNS(N)(=O)=O)CS[C@H]12)c1nc(N)sc1Cl)C(=O)O,,8 µg/mL,,0.032 µg/mL,4 µg/mL,1 µg/mL,0.016 µg/mL,,4 µg/mL,2 µg/mL,,,0.063 µg/mL,,0.25 µg/mL,4 µg/mL,2 µg/mL,,0.5 µg/mL,2 µg/mL,
